For test [1], the system named is Plasmodium falciparum W-2 (CDC/Indochina III). Description: In vitro antimalarial [3H]-hypoxanthine incorporation serial dilution assay, clone W2. It counts as cell-based. The settings on record: P. falciparum W2 clone, parasites exposed for 72 hours, azithromycin value averaged. From the text: (§1) The in vitro screens for intrinsic antimalarial activity were based on modifications of the procedures described by Desjardins R E, Canfield C J, Haynes J D, Chulay J D. (Quantitative assessment of antimalarial activity in vitro by a semiautomated microdilution technique. Antimicrob Agents Chemother. 1979 December; 16(6):710-8.), Chulay J D, Haynes J D, Diggs C L. (Plasmodium falciparum: Assessment of in vitro growth by [3H]hypoxanthine incorporation. Exp. Parasitol. 1983 55:138-146.), and Milhous W N, Weatherly N F, Bowdre J H, Desjardins R E. (In vitro activities of and mechanisms of resistance to antifol antimalarial drugs. Antimicrob Agents Chemother. 1985 April; 27(4):525-30.). The system was limited to the assessment of the intrinsic activity against the erythrocytic asexual life cycle (blood schizontocides). Two Plasmodium falciparum clones from CDC/Indochina III (W-2) and CDC/Sierra Leone I (D-6) (Oduola A M, Weatherly N F, Bowdre J H, Desjardins R E. Plasmodium falciparum: cloning by single-erythrocyte micromanipulation and heterogeneity in vitro. Exp Parasitol. 1988 66(1):86-95.) were used for all assays. TM91C235, a multiple drug resistant isolate from Thailand, was used for the prescreening assay. W-2 is resistant to chloroquine, quinine, and pyrimethamine and susceptible to mefloquine. D-6 tends to be more resistant to mefloquine and susceptible to chloroquine, quinine, and pyrimethamine. All documents cited in this paragraph are incorporated by reference in their entirety.
(§2) All parasites were maintained in continuous long term cultures in RPMI-1640 medium supplemented with 6% washed human A positive (A+)(erythrocytes, 25 mM Hepes, […], and 10% heat inactivated A+ human plasma or ALBUMAX® (lipid-rich bovine serum albumin; Invitrogen, Carlsbad, Calif.). All cultures and assays were conducted at 37° C. under an atmosphere of 5% CO2 and 5% O2, with a balance of N2.
(§3) The prescreening assay uses TM91C235 diluted at a 0.4% parasitemia in a 1% hematocrit in folic acid free and p-aminobenzoic acid free media RPMI-1640 and ALBUMAX®. One mg of the compound is typically dissolved in 100 μl of dimethyl sulfoxide (DMSO). The compound is further diluted in culture medium (FF) with ALBUMAX® for the first initial starting concentration. The rest of the stock drug solution was kept at −70° C. The isolate was preexposed, in duplicate, at three concentrations (25,000 ng/ml, 2,500 ng/ml, and 25 ng/ml) of the test compound for 48 hr in a 96-well microtiter plate (MTP) using the BIOMEK® 2000 automated laboratory workstation. Each MTP contains chloroquine as control to assess the relative activity of the compound and to monitor the response of TM91C235.
(§4) After the preincubation, [^3H]-hypoxanthine was added to each well of the MTP. (The assay relies on the incorporation of radiolabeled hypoxanthine by the parasites, which indicates reproduction, and inhibition of isotope incorporation was attributed to activity of known or candidate antimalarial drugs). After 72 hr of total incubation time, the MTP were frozen to lyse the erythrocytes and parasites. The parasite DNA was recovered by harvesting the lysate onto glass-fiber filter plates using a Packard FilterMate™ Cell Harvester. The radioactivity was counted on a Packard TopCount™ microplate scintillation counter. The results were recorded as counts per minutes (CPM) per well at each drug concentration divided by the arithmetic mean of the CPM from the three untreated infection parasite control wells.
(§5) The serial dilution assay was conducted using the same assay conditions and stock solution of the compound used for the preliminary screen, described above. Both the D-6 and the W-2 clones were used. The compounds were diluted two-fold over 11 different concentration ranges with a starting concentration that was based on the preliminary screen. […]

Test [2] relates to Plasmodium falciparum TM91C235. Description: In vitro antimalarial [3H]-hypoxanthine incorporation assay, strain TM91C235. It counts as cell-based. To be noted: P. falciparum TM91C235 (multiple drug resistant isolate from Thailand), parasites exposed for 72 hours, azithromycin value averaged.
Text: as §1, §2, §3, §4, §5

Test [3] relates to Plasmodium falciparum D-6 (CDC/Sierra Leone I). Description: In vitro antimalarial [3H]-hypoxanthine incorporation serial dilution assay, clone D6. The class given is cell-based. To be noted: P. falciparum D6 clone, parasites exposed for 72 hours, azithromycin value averaged.
Text: as §1, §2, §3, §4, §5

The subject of the next test is Plasinodium falciparum. The settings on record: non-immune patients, Plasmodium falciparum, as compared to controls; cited from earlier work.
The next test deals with Plasmodium vivax. To be noted: non-immune patients, as compared to controls; cited from earlier work.
The subject of another test is Plasmodium cynomolgi. To be noted: rhesus monkey; cited from earlier work.
For test [4], the system named is Plasmodium yoelii nigeriensis. The settings on record: cited from earlier work.
Another test relates to Plasmodium berghei. To be noted: cited from earlier work.

Here are results for 13 compounds from US20080227730A1, “9A-Carbamoyl and Thiocarbamoyl Azalides With Antimalarial Activity” (GLAXOSMITHKLINE ISTRAZIVACKI CENTAR ZAGREB D.O.O., priority 2005, published 2008).

≈ marks a conversion by molar mass, not a printed value. Where only a bound is given, the exact number is not on record here.

For orientation: IC50 means the concentration that gives 50% inhibition. As for `CC[C@H]1OC(=O)[C@H](C)[C@@H](O[C@H]2C[C@@](C)(OC)[C@@H](O)[C@H](C)O2)[C@H](C)[C@@H](O[C@@H]2O[C@H](C)C[C@H](N(C)C)[C@H]2O)[C@](C)(O)C[C@@H](C)CN(C(=O)Nc2ccc(S(=O)(=O)Nc3cc(C)on3)cc2)[C@H](C)[C@@H](O)[C@]1(C)O` [Compound 4], the figures for the IC50 in test [1], in test [2] and in test [3] were 1.59 µg/mL (≈ 1.57 µM), over 1.62 µg/mL and 0.12 µg/mL (≈ 0.118 µM), respectively.

On to `CC[C@H]1OC(=O)[C@H](C)[C@@H](O[C@H]2C[C@@](C)(OC)[C@@H](O)[C@H](C)O2)[C@H](C)[C@@H](O[C@@H]2O[C@H](C)C[C@H](N(C)C)[C@H]2O)[C@](C)(O)C[C@@H](C)CN(C(=S)NCc2ccccc2)[C@H](C)[C@@H](O)[C@]1(C)O` [Compound 11], for which the IC50 worked out at 0.386 µg/mL (≈ 0.436 µM) in test [1], 0.304 µg/mL (≈ 0.344 µM) in test [2] and 0.253 µg/mL (≈ 0.286 µM) in test [3].

Consider `CC[C@H]1OC(=O)[C@H](C)[C@@H](O)[C@H](C)[C@@H](O[C@@H]2O[C@H](C)C[C@H](N(C)C)[C@H]2O)[C@](C)(O)C[C@@H](C)CN(C(=O)Nc2ccc(S(=O)(=O)Nc3cc(C)on3)cc2)[C@H](C)[C@@H](O)[C@]1(C)O` [Compound 5], for which the half-maximal inhibitory concentration (IC50) was over 1.76 µg/mL in test [1], over 1.62 µg/mL in test [2] and 0.0523 µg/mL (≈ 0.0611 µM) in test [3].

On to `CC[C@H]1OC(=O)[C@H](C)[C@@H](O[C@H]2C[C@@](C)(OC)[C@@H](O)[C@H](C)O2)[C@H](C)[C@@H](O[C@@H]2O[C@H](C)C[C@H](N(C)C)[C@H]2O)[C@](C)(O)C[C@@H](C)CN(C(=O)Nc2ccc(S(=O)(=O)Nc3ccccn3)cc2)[C@H](C)[C@@H](O)[C@]1(C)O` [Compound 2], for which the figures for the IC50 in test [1], in test [2] and in test [3] were over 1.76 µg/mL, 1.03 µg/mL (≈ 1.02 µM) and 0.251 µg/mL (≈ 0.248 µM), respectively.

In the case of `CC[C@H]1OC(=O)[C@H](C)[C@@H](O[C@H]2C[C@@](C)(OC)[C@@H](O)[C@H](C)O2)[C@H](C)[C@@H](O[C@@H]2O[C@H](C)C[C@H](N(C)C)[C@H]2O)[C@](C)(O)C[C@@H](C)CN(C(=S)Nc2cccc(Cl)c2)[C@H](C)[C@@H](O)[C@]1(C)O` [Compound 9], the results for the IC50 in test [1] and in test [3] were 1.5 µg/mL (≈ 1.66 µM) and 0.762 µg/mL (≈ 0.843 µM), respectively.

Regarding `CC[C@H]1OC(=O)[C@H](C)[C@@H](O[C@H]2C[C@@](C)(OC)[C@@H](O)[C@H](C)O2)[C@H](C)[C@@H](O[C@@H]2O[C@H](C)C[C@H](N(C)C)[C@H]2O)[C@](C)(O)C[C@@H](C)CN(C(=O)Nc2ccc(S(=O)(=O)Nc3ccccc3)cc2)[C@H](C)[C@@H](O)[C@]1(C)O` [Compound 1], the IC50 in test [1] turned out to be 0.448 µg/mL (≈ 0.444 µM); in test [2], 0.299 µg/mL (≈ 0.296 µM); in test [3] it was 0.428 µg/mL (≈ 0.424 µM).

For the compound `CC[C@H]1OC(=O)[C@H](C)[C@@H](O[C@H]2C[C@@](C)(OC)[C@@H](O)[C@H](C)O2)[C@H](C)[C@@H](O[C@@H]2O[C@H](C)C[C@H](N(C)C)[C@H]2OC(C)=O)[C@](C)(O)C[C@@H](C)CN(C(=O)NC(C)C)[C@H](C)[C@@H](O)[C@]1(C)O` [Compound 10], the half-inhibitory concentration (IC50) in test [1] was over 1.76 µg/mL; in test [2], 0.353 µg/mL (≈ 0.41 µM); in test [3] it was over 0.797 µg/mL.

Take `CC[C@H]1OC(=O)[C@H](C)[C@@H](O)[C@H](C)[C@@H](O[C@@H]2O[C@H](C)C[C@H](N(C)C)[C@H]2O)[C@](C)(O)C[C@@H](C)CN(C(=O)Nc2ccc(S(=O)(=O)Nc3ccccn3)cc2)[C@H](C)[C@@H](O)[C@]1(C)O` [Compound 6]: the IC50 in test [1] is over 1.76 µg/mL; in test [2], over 1.62 µg/mL; in test [3], 0.0908 µg/mL (≈ 0.107 µM).

With `CC[C@H]1OC(=O)[C@H](C)[C@@H](O[C@H]2C[C@@](C)(OC)[C@@H](O)[C@H](C)O2)[C@H](C)[C@@H](O[C@@H]2O[C@H](C)C[C@H](N(C)C)[C@H]2O)[C@](C)(O)C[C@@H](C)CN(C(=O)NS(=O)(=O)c2ccccc2Cl)[C@H](C)[C@@H](O)[C@]1(C)O` [Compound 3], the IC50 in test [1] was 1.43 µg/mL (≈ 1.5 µM); in test [2], over 1.62 µg/mL; in test [3], 1.11 µg/mL (≈ 1.17 µM).

`CC[C@H]1OC(=O)[C@H](C)[C@@H](O[C@H]2C[C@@](C)(OC)[C@@H](O)[C@H](C)O2)[C@H](C)[C@@H](O[C@@H]2O[C@H](C)C[C@H](N(C)C)[C@H]2O)[C@](C)(O)C[C@@H](C)CN(C)[C@H](C)[C@@H](O)[C@]1(C)O` [azithromycin]: the results for the prophylactic efficacy with Plasinodium falciparum and in the test on Plasmodium vivax were 71.6% and 98.9%, respectively. Further, the “efficacy in monkey model” value in the test on Plasmodium cynomolgi is “active”.

As to `CC[C@H]1OC(=O)[C@H](C)[C@@H](O[C@H]2C[C@@](C)(OC)[C@@H](O)[C@H](C)O2)[C@H](C)[C@@H](O[C@@H]2O[C@H](C)C[C@H](N(C)C)[C@H]2O)[C@](C)(O)C[C@@H](C)CN(C(=O)Nc2cccc(Cl)c2)[C@H](C)[C@@H](O)[C@]1(C)O` [Compound 7], the IC50 in test [1] turned out to be 1.22 µg/mL (≈ 1.37 µM); in test [3] it was 0.583 µg/mL (≈ 0.656 µM).

Turning to `CC[C@H]1OC(=O)[C@H](C)[C@@H](O[C@H]2C[C@@](C)(OC)[C@@H](O)[C@H](C)O2)[C@H](C)[C@@H](O[C@@H]2O[C@H](C)C[C@H](N(C)C)[C@H]2O)[C@](C)(O)C[C@@H](C)CN(C(=O)Nc2cccc3ccccc23)[C@H](C)[C@@H](O)[C@]1(C)O` [Compound 8], the 50% inhibitory concentration (IC50) in test [1] worked out at 1.9 µg/mL (≈ 2.11 µM); in test [2], 0.712 µg/mL (≈ 0.788 µM); in test [3], 0.751 µg/mL (≈ 0.831 µM).

For the compound midecamycinin, the “activity in mouse model” value (in test [4]; in the test on Plasmodium berghei) was “active” each time. Also, in the test with Plasmodium cynomolgi, the “efficacy in monkey model” value is listed as “no efficacy”.
